Tested on: wild-type HN08 strain
Assay type: cell-based, C. siamense

`N#Cc1c[nH]cc1-c1cccc2c1OC(F)(F)O2` [fludioxonil] was tested, and the strain growth rate was “gradually decreases”.
